# From PMC9848257, “Design and synthesis of novel rigid dibenzo[b,f]azepines through ring closure technique as promising anticancer candidates against leukaemia and acting as selective topoisomerase II inhibitors and DNA intercalators” (Journal of Enzyme Inhibition and Medicinal Chemistry, 2023)
# Tests used:
# [1] = test system: A549-ATCC; assay: NCI-60 one-dose screen, A549-ATCC; format: cell-based; settings: Homo sapiens, non-small cell lung cancer, single dose 10 μM, read-out: Growth inhibition %
# Procedure: (§1) Anti-proliferative effects of the counterparts 4a–g and 5a–g were screened against 60 human cancer cell lines, following the Developmental Therapeutics Program protocol, National Cancer Institute[35].
# (§2) The anti-tumour activity of the fourteen synthesised congeners was investigated at the NCI against a panel of 60 cancer cell lines (NCI-60 Cell One-Dose Screen). The tested dibenzo[b,f]azepine derivatives were screened at a single dose level (10 μM), Table 1.
# [2] = test system: HOP-62; assay: NCI-60 one-dose screen, HOP-62; format: cell-based; settings: Homo sapiens; HOP-62, non-small cell lung cancer; single dose 10 μM; read-out: Growth inhibition %
# Procedure: as §1, §2
# [3] = test system: NCI-H23; assay: NCI-60 one-dose screen, NCI-H23; format: cell-based; settings: Homo sapiens; NCI-H23, non-small cell lung cancer; single dose 10 μM; read-out: Growth inhibition %
# Procedure: as §1, §2
# [4] = test system: NCI-H322M; assay: NCI-60 one-dose screen, NCI-H322M; format: cell-based; settings: Homo sapiens, non-small cell lung cancer, single dose 10 μM, read-out: Growth inhibition %
# Procedure: as §1, §2
# [5] = test system: NCI-H460; assay: NCI-60 one-dose screen, NCI-H460; format: cell-based; settings: Homo sapiens; NCI-H460, non-small cell lung cancer; single dose 10 μM; read-out: Growth inhibition %
# Procedure: as §1, §2
# [6] = test system: HCC-2998; assay: NCI-60 one-dose screen, HCC-2998; format: cell-based; settings: Homo sapiens; HCC-2998, colon cancer; single dose 10 μM; read-out: Growth inhibition %
# Procedure: as §1, §2
# [7] = test system: HCT-15; assay: NCI-60 one-dose screen, HCT-15; format: cell-based; settings: Homo sapiens; HCT-15, colon cancer; single dose 10 μM; read-out: Growth inhibition %
# Procedure: as §1, §2
# [8] = test system: SF-539; assay: NCI-60 one-dose screen, SF-539; format: cell-based; settings: Homo sapiens; SF-539, CNS cancer; single dose 10 μM; read-out: Growth inhibition %
# Procedure: as §1, §2
# [9] = test system: LOX IMVI; assay: NCI-60 one-dose screen, LOX IMVI; format: cell-based; settings: Homo sapiens, melanoma, single dose 10 μM, read-out: Growth inhibition %
# Procedure: as §1, §2
# [10] = test system: MALME-3M; assay: NCI-60 one-dose screen, MALME-3M; format: cell-based; settings: Homo sapiens, melanoma, single dose 10 μM, read-out: Growth inhibition %
# Procedure: as §1, §2
# [11] = test system: M14; assay: NCI-60 one-dose screen, M14; format: cell-based; settings: Homo sapiens; M14, melanoma; single dose 10 μM; read-out: Growth inhibition %
# Procedure: as §1, §2
# [12] = test system: SK-MEL-2; assay: NCI-60 one-dose screen, SK-MEL-2; format: cell-based; settings: Homo sapiens; SK-MEL-2, melanoma; single dose 10 μM; read-out: Growth inhibition %
# Procedure: as §1, §2
# [13] = test system: UACC-257; assay: NCI-60 one-dose screen, UACC-257; format: cell-based; settings: Homo sapiens; UACC-257, melanoma; single dose 10 μM; read-out: Growth inhibition %
# Procedure: as §1, §2
# [14] = test system: IGROV1; assay: NCI-60 one-dose screen, IGROV1; format: cell-based; settings: Homo sapiens, IGROV-1; IGROV1, ovarian cancer; single dose 10 μM; read-out: Growth inhibition %
# Procedure: as §1, §2
# [15] = test system: OVCAR-5; assay: NCI-60 one-dose screen, OVCAR-5; format: cell-based; settings: Homo sapiens; OVCAR-5, ovarian cancer; single dose 10 μM; read-out: Growth inhibition %
# Procedure: as §1, §2
# [16] = test system: NCI/ADR-RES; assay: NCI-60 one-dose screen, NCI/ADR-RES; format: cell-based; settings: Homo sapiens, ovarian cancer, single dose 10 μM, read-out: Growth inhibition %
# Procedure: as §1, §2
# [17] = test system: 786-0; assay: NCI-60 one-dose screen, 786-0; format: cell-based; settings: Homo sapiens; 786-0, renal cancer; single dose 10 μM; read-out: Growth inhibition %
# Procedure: as §1, §2
# [18] = test system: ACHN; assay: NCI-60 one-dose screen, ACHN; format: cell-based; settings: Homo sapiens, renal cancer, single dose 10 μM, read-out: Growth inhibition %
# Procedure: as §1, §2
# [19] = test system: CAKI-1; assay: NCI-60 one-dose screen, CAKI-1; format: cell-based; settings: Homo sapiens; CAKI-1, renal cancer; single dose 10 μM; read-out: Growth inhibition %
# Procedure: as §1, §2
# [20] = test system: RXF 393; assay: NCI-60 one-dose screen, RXF 393; format: cell-based; settings: Homo sapiens; RXF 393, renal cancer; single dose 10 μM; read-out: Growth inhibition %
# Procedure: as §1, §2
# [21] = test system: SN12C; assay: NCI-60 one-dose screen, SN12C; format: cell-based; settings: Homo sapiens, renal cancer, single dose 10 μM, read-out: Growth inhibition %
# Procedure: as §1, §2
# [22] = test system: MCF-7; assay: NCI-60 one-dose screen, MCF-7; format: cell-based; settings: Homo sapiens, MCF7; MCF-7, breast cancer; single dose 10 μM; read-out: Growth inhibition %
# Procedure: as §1, §2
# [23] = test system: T-47D; assay: NCI-60 one-dose screen, T-47D; format: cell-based; settings: Homo sapiens, T47D, breast cancer, single dose 10 μM, read-out: Growth inhibition %
# Procedure: as §1, §2
# [24] = test system: MDA-MB-468; assay: NCI-60 one-dose screen, MDA-MB-468; format: cell-based; settings: Homo sapiens; MDA-MB-468, breast cancer; single dose 10 μM; read-out: Growth inhibition %
# Procedure: as §1, §2
# [25] = biological target: topoisomerase II; assay: Topoisomerase II inhibitory assay; format: biochemical; settings: for IC50: in vitro, doxorubicin co-assayed as reference; for Percentage of topoisomerase II inhibition: at the concentration of 100 µM (Figure 3A)
# Procedure: Therefore, following the procedure reported by Patra et al., the topoisomerase II activity was evaluated.
# [26] = Cytotoxic effect against normal cell line; format: cell-based; settings: human, normal cell line PSC-800-011; read-out: Cytotoxicity IC50, PSC-800-011
# Procedure: Following, the cytotoxic effect of compound 5e against a normal cell line, PSC-800–011, was also assigned to evaluate the selectivity of the compound towards the cancer cell lines. […] However, the selectivity index (SI) of compound 5e was also calculated to confirm its selectivity. It was known that any sample that has an SI value higher than 3 will be considered to have high selectivity.
Compound,inhibition at 10 µM [1],inhibition at 10 µM [2],inhibition at 10 µM [3],inhibition at 10 µM [4],inhibition at 10 µM [5],inhibition at 10 µM [6],inhibition at 10 µM [7],inhibition at 10 µM [8],inhibition at 10 µM [9],inhibition at 10 µM [10],inhibition at 10 µM [11],inhibition at 10 µM [12],inhibition at 10 µM [13],inhibition at 10 µM [14],inhibition at 10 µM [15],inhibition at 10 µM [16],inhibition at 10 µM [17],inhibition at 10 µM [18],inhibition at 10 µM [19],inhibition at 10 µM [20],other results
"C1=Cc2ccccc2N(c2nnc(-c3ccccc3)o2)c2ccccc21 [Compound 5a, 2-(5 h-Dibenzo[b,f]azepin-5-yl)-5-phenyl-1,3,4-oxadiazole]",< 10%,15.3%,< 10%,50.2%,< 10%,33.4%,< 10%,< 10%,< 10%,< 10%,12.1%,< 10%,13.6%,< 10%,< 10%,< 10%,20%,16.7%,< 10%,< 10%,inhibition at 10 µM [21]: < 10%; inhibition at 10 µM [22]: 14.4%; inhibition at 10 µM [23]: < 10%; inhibition at 10 µM [24]: 26.1%; IC50 [25]: 15.6 µM
"Brc1ccc(-c2nnc(N3c4ccccc4C=Cc4ccccc43)o2)cc1 [Compound 5b, 2-(4-Bromophenyl)-5-(5H-dibenzo[b,f]azepin-5-yl)-1,3,4-oxadiazole]",29.8%,22.7%,< 10%,< 10%,63.5%,< 10%,66.5%,17.2%,38.8%,< 10%,< 10%,< 10%,< 10%,21.6%,< 10%,23.4%,11.3%,24.8%,31.9%,24.9%,inhibition at 10 µM [21]: 24.2%; inhibition at 10 µM [22]: 30.5%; inhibition at 10 µM [23]: 21.5%; inhibition at 10 µM [24]: 17.8%; IC50 [25]: 10.2 µM
"Clc1ccc(-c2nnc(N3c4ccccc4C=Cc4ccccc43)o2)cc1 [Compound 5c, 2-(4-Chlorophenyl)-5-(5H-dibenzo[b,f]azepin-5-yl)-1,3,4-oxadiazole]",20.3%,15.4%,< 10%,10.5%,57.3%,< 10%,63.5%,< 10%,35.7%,< 10%,< 10%,< 10%,< 10%,19.2%,< 10%,14.5%,< 10%,15.5%,28.5%,17.9%,inhibition at 10 µM [21]: 21.9%; inhibition at 10 µM [22]: 35.6%; inhibition at 10 µM [23]: < 10%; inhibition at 10 µM [24]: 16.7%; IC50 [25]: 31.8 µM
"Cc1ccc(-c2nnc(N3c4ccccc4C=Cc4ccccc43)o2)cc1 [Compound 5d, 2-(5 h-Dibenzo[b,f]azepin-5-yl)-5-(p-tolyl)-1,3,4-oxadiazole]",12.4%,< 10%,< 10%,< 10%,58.6%,< 10%,61.1%,< 10%,25.6%,< 10%,< 10%,< 10%,< 10%,< 10%,< 10%,< 10%,< 10%,< 10%,16.2%,< 10%,inhibition at 10 µM [21]: < 10%; inhibition at 10 µM [22]: 15.7%; inhibition at 10 µM [23]: < 10%; inhibition at 10 µM [24]: < 10%; IC50 [25]: 16.8 µM
"O=[N+]([O-])c1ccc(-c2nnc(N3c4ccccc4C=Cc4ccccc43)o2)cc1 [Compound 5e, 2-(5 h-Dibenzo[b,f]azepin-5-yl)-5–(4-nitrophenyl)-1,3,4-oxadiazole]",16.5%,< 10%,< 10%,4.97%,1.84%,< 10%,30.7%,< 10%,< 10%,< 10%,< 10%,< 10%,< 10%,< 10%,< 10%,< 10%,< 10%,< 10%,29.7%,< 10%,inhibition at 10 µM [21]: < 10%; inhibition at 10 µM [22]: 17.4%; inhibition at 10 µM [23]: 18.4%; inhibition at 10 µM [24]: 11.4%; Percentage of topoisomerase II inhibition [25]: 89%; IC50 [25]: 6.36 µM; IC50 [26]: 43.9 ± 2.68 µM
"C1=Cc2ccccc2N(c2nnc(-c3ccc4ccccc4c3)o2)c2ccccc21 [Compound 5f, 2-(5 h-Dibenzo[b,f]azepin-5-yl)-5-(naphthalen-2-yl)-1,3,4-oxadiazole]",28.2%,< 10%,12.4%,9.52%,25.1%,< 10%,57%,< 10%,18.7%,< 10%,< 10%,< 10%,< 10%,29.1%,< 10%,12.1%,< 10%,10.5%,33.1%,10.4%,inhibition at 10 µM [21]: 15.7%; inhibition at 10 µM [22]: 24.4%; inhibition at 10 µM [23]: 18.3%; inhibition at 10 µM [24]: 11.1%; Percentage of topoisomerase II inhibition [25]: 88%; IC50 [25]: 9.56 µM
"C1=Cc2ccccc2N(c2nnc(Cc3ccccc3)o2)c2ccccc21 [Compound 5g, 2-Benzyl-5-(5H-dibenzo[b,f]azepin-5-yl)-1,3,4-oxadiazole]",24.7%,18.4%,< 10%,< 10%,17.4%,< 10%,4.03%,11.5%,< 10%,< 10%,< 10%,< 10%,19.1%,< 10%,< 10%,< 10%,18.8%,27.7%,< 10%,< 10%,inhibition at 10 µM [21]: < 10%; inhibition at 10 µM [22]: < 10%; inhibition at 10 µM [23]: 12%; inhibition at 10 µM [24]: 15.6%; IC50 [25]: 18.9 µM
